# Patent US20180273531A1, “PYRIMIDINE COMPOUND AND MEDICAL USE THEREOF” (Japan Tobacco Inc., priority 2004, published 2018)
# Assays:
# Format in all cases: cell-based
# [1] = system: Renal cancer cell line ACHN cell; experiment: Growth inhibitory effect against cancer cell lines (3H-thymidine uptake), ACHN
# Protocol: Renal cancer cell line ACHN cell or colorectal cancer cell line HT-29 cells were cultured in a 96 well plate at 1.0×10^4 cells/90 μL/well for 24 hrs, then a test substance dissolved in DMSO (dimethyl sulfoxide) was added. After 18 hrs, ^3H-thymidine (0.25 μCi/well) was added and the cells were cultured for 6 hrs. Using a cell harvester, the cells were recovered on a UniFilter-96 GF/B glass filter and the ^3H radioactivity uptaken by the cells was measured by TopCount (Packard). As a control, DMSO was used and the activity of the test substance was expressed in the concentration (IC50) necessary for inhibiting ^3H radioactivity uptaken by the cell to 50% of that of the control group. The measurements were made in triplicate.
# [2] = system: colorectal cancer cell line HT-29 cells; experiment: Growth inhibitory effect against cancer cell lines (3H-thymidine uptake), HT-29; details: test substance 18 hrs, then 3H-thymidine 6 hrs, triplicate
# Summary of the method: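 Cells seeded at 1.0×10^4/well, grown 24 hrs, then exposed to compound in DMSO for 18 hrs before 6 hrs pulse with ^3H-thymidine (0.25 μCi/well). Harvested cell-incorporated radioactivity counted; IC50 is the concentration halving uptake versus DMSO control, triplicate.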
# [3] = system: p15 protein; experiment: Evaluation of p15 induction activity (Western blotting); details: test substance 0.1 μM, 24 hrs, ACHN cells or HT-29 cells, compared to DMSO, n=2
# Protocol: (§1) ACHN cells or HT-29 cells were cultured in a 6 well plate at 2.5×10^5 cells/1.8 mL/well for 24 hrs, then a test substance (0.1 μM) dissolved in DMSO was added. After 24 hrs, cells were detached using trypsin-EDTA (ethylene diamine tetraacetic acid) and solubilized with NuPAGE LDS sample buffer (Invitrogen). Using an RC DC protein assay kit (BIO-RAD), the protein concentration of the sample was quantitated, and a sample in an amount corresponding to 10 μg of BSA (bovine serum albumin) was analyzed by Western blotting using an anti-p15 antibody. The density of the band stained with the anti-p15 antibody was measured by a densitometer to quantify the amount of p15 protein. As a control, DMSO was used and the test was performed with n=2 and the average protein amount was determined.
# [4] = system: p27 protein; experiment: p27 protein induction test (Western blotting); details: test substance (0.1 1M), 24 hrs, ACHN cells or HT-29 cells, compared to DMSO, n=2
# Protocol: as §1, with “hrs,” for “hrs, then”, “[…])” for “μM)”, “anti-p27” for “anti-p15”, “p27” for “p15”
# [5] = Homo sapiens, HT-29, inhibition of 3H-thymidine uptake
Structure (SMILES),"IC50 ([1]; Homo sapiens, ACHN) [nM]","IC50 [2, 5] [nM]","IC50 ([1]; inhibition of 3H-thymidine uptake, test substance 18 hrs, then 3H-thymidine 6 hrs, triplicate) [nM]",IC50 ([2]; inhibition of 3H-thymidine uptake) [nM],fold induction at 0.1 µM [3],fold induction at 0.1 µM [4],Induction of p15 protein [3]
Cc1cc(N(C)C)ccc1Nc1cc(=O)n(C)c2c1c(=O)n(C1CC1)c(=O)n2-c1ccccc1F [Example 1-142],,100 to 1000,,,≥ 1.5,≥ 1.5,
COc1ccc(Nc2cc(=O)n(C)c3c2c(=O)n(C2CC2)c(=O)n3-c2ccccc2)c(F)c1 [Example 1-175],,100 to 1000,,,≥ 1.5,≥ 1.5,
CC(C)N1CCC(Nc2cc(=O)n(C)c3c2c(=O)n(C2CC2)c(=O)n3-c2ccccc2)CC1 [Example 1-182],,,,,,≥ 1.5,
COc1ccc(-n2c(=O)n(C3CC3)c(=O)c3c(Nc4ccc(Br)cc4F)cc(=O)n(C)c32)cc1 [Example 1-186],,10 to 100,,,≥ 1.5,≥ 1.5,
Cn1c(=O)cc(Nc2ccc(Br)cc2F)c2c(=O)n(C3CC3)c(=O)n(-c3cccc(O)c3)c21 [Example 1-213],100 to 1000,10 to 100,,,≥ 1.5,,
CN(C)CCOc1cccc(-n2c(=O)n(C3CC3)c(=O)c3c(Nc4ccc(Br)cc4F)cc(=O)n(C)c32)c1 [Example 1-218],,10 to 100,,,≥ 1.5,≥ 1.5,
CN(c1cccc(-n2c(=O)n(C3CC3)c(=O)c3c(Nc4ccc(Br)cc4F)cc(=O)n(C)c32)c1)S(C)(=O)=O [Example 1-228],100 to 1000,10 to 100,,,,≥ 1.5,
CN(C)CC#Cc1ccc(Nc2cc(=O)n(C)c3c2c(=O)n(C2CC2)c(=O)n3-c2ccccc2)c(F)c1 [Example 1-246],100 to 1000,10 to 100,,,≥ 1.5,,
COCCN(C)c1cccc(-n2c(=O)n(C3CC3)c(=O)c3c(Nc4ccc(Br)cc4F)cc(=O)n(C)c32)c1 [Example 1-253],100 to 1000,10 to 100,,,,≥ 1.5,
C#Cc1ccc(Nc2cc(=O)n(C)c3c2c(=O)n(C2CC2)c(=O)n3-c2cccc(S(C)(=O)=O)c2)c(F)c1 [Example 1-259],100 to 1000,< 10,,,,≥ 1.5,
Cn1c(=O)cc(Nc2ccc(Br)cc2F)c2c(=O)n(C3CC3)c(=O)n(-c3cccc(NC(=O)CO)c3)c21 [Example 1-263],100 to 1000,< 10,,,,≥ 1.5,
CCCCC(=O)NCCC(=O)Nc1cccc(-n2c(=O)n(C3CC3)c(=O)c3c(Nc4ccc(Br)cc4F)cc(=O)n(C)c32)c1 [Example 1-299],100 to 1000,10 to 100,,,,≥ 1.5,
Cn1c(=O)cc(Nc2ccc(Br)cc2F)c2c(=O)n(C3CC3)c(=O)n(-c3cccc(NCCN4CCOCC4)c3)c21 [Example 1-303],100 to 1000,10 to 100,,,,≥ 1.5,
C#Cc1ccc(Nc2cc(=O)n(C)c3c2c(=O)n(C2CC2)c(=O)n3-c2cccc(NC(C)=O)c2)c(F)c1 [Example 1-310],10 to 100,< 10,,,,≥ 1.5,
CN1CCN(S(=O)(=O)c2cccc(-n3c(=O)n(C4CC4)c(=O)c4c(Nc5ccc(Br)cc5F)cc(=O)n(C)c43)c2)CC1 [Example 1-315],100 to 1000,10 to 100,,,,≥ 1.5,
Cn1c(=O)cc(Nc2ccc(Br)cc2F)c2c(=O)n(C3CC3)c(=O)n(-c3cccc(S(=O)(=O)N4CCOCC4)c3)c21 [Example 1-316],100 to 1000,10 to 100,,,,≥ 1.5,
Cc1c(Nc2ccc(Br)cc2F)c2c(=O)n(C3CC3)c(=O)n(-c3cccc(NS(C)(=O)=O)c3)c2n(C)c1=O [Example 1-333],10 to 100,< 10,,,≥ 1.5,,
CCS(=O)(=O)Nc1cccc(-n2c(=O)n(C3CC3)c(=O)c3c(Nc4ccc(Br)cc4F)n(C)c(=O)c(C)c32)c1 [Example 3-5],10 to 100,< 10,,,,≥ 1.5,
CC(=O)Nc1cc(-n2c(=O)n(C3CC3)c(=O)c3c(Nc4ccc(I)cc4F)n(C)c(=O)c(C)c32)ccc1F [Example 4-99],100 to 1000,< 10,,,,≥ 1.5,
Cc1c(=O)n(C)c(Nc2ccc(I)cc2F)c2c(=O)n(C3CC3)c(=O)n(-c3ccc4c(c3)ncn4C)c12 [Example 4-111],100 to 1000,10 to 100,,,≥ 1.5,,
Cc1c(=O)n(C)c(Nc2ccc(I)cc2F)c2c(=O)n(C3CC3)c(=O)n(-c3ccc4c(c3)ncn4C)c12 [Example 4-112],,,100 to 1000,< 10,,,"+ (As compared to DMSO, not less than 1.5-fold induction of p15 protein)"

# Further lines, with some results ahead:
"IC50 ([1]; Homo sapiens, ACHN) [nM]","IC50 [2, 5] [nM]","IC50 ([1]; inhibition of 3H-thymidine uptake, test substance 18 hrs, then 3H-thymidine 6 hrs, triplicate) [nM]",IC50 ([2]; inhibition of 3H-thymidine uptake) [nM],Structure (SMILES),fold induction at 0.1 µM [3],fold induction at 0.1 µM [4],Induction of p15 protein [3]
10 to 100,< 10,,,"Cn1c(=O)cc(Nc2ccc(Br)cc2F)c2c(=O)n(C3CC3)c(=O)n(-c3cccc(NS(C)(=O)=O)c3)c21 [Example 1-1, N-{3-[5-(4-bromo-2-fluoro-phenylamino)-3-cyclopropyl-8-methyl-2,4,7-trioxo-3,4,7,8-tetrahydro-2H-pyrido[2,3-d]pyrimidin-1-yl]phenyl}-methanesulfonamide]",≥ 1.5,≥ 1.5,
100 to 1000,10 to 100,,,Cn1c(=O)cc(Nc2ccc(Br)cc2F)c2c(=O)n(C3CC3)c(=O)n(-c3cccc(S(C)(=O)=O)c3)c21 [Example 1-223],≥ 1.5,,
< 10,< 10,,,C#Cc1ccc(Nc2cc(=O)n(C)c3c2c(=O)n(C2CC2)c(=O)n3-c2cccc(NS(C)(=O)=O)c2)c(F)c1 [Example 1-260],,≥ 1.5,
10 to 100,< 10,,,CCS(=O)(=O)Nc1cccc(-n2c(=O)n(C3CC3)c(=O)c3c(Nc4ccc(Br)cc4F)cc(=O)n(C)c32)c1 [Example 1-262],,≥ 1.5,
< 10,< 10,,,CCS(=O)(=O)Nc1cccc(-n2c(=O)n(C3CC3)c(=O)c3c(Nc4ccc(I)cc4F)cc(=O)n(C)c32)c1 [Example 1-274],,≥ 1.5,
10 to 100,< 10,,,CCc1ccc(Nc2cc(=O)n(C)c3c2c(=O)n(C2CC2)c(=O)n3-c2cccc(NS(C)(=O)=O)c2)c(F)c1 [Example 1-275],,≥ 1.5,
100 to 1000,10 to 100,,,CCCC(=O)Nc1cccc(-n2c(=O)n(C3CC3)c(=O)c3c(Nc4ccc(Br)cc4F)cc(=O)n(C)c32)c1 [Example 1-279],,≥ 1.5,
10 to 100,< 10,,,Cn1c(=O)cc(Nc2ccc(I)cc2)c2c(=O)n(C3CC3)c(=O)n(-c3cccc(NS(C)(=O)=O)c3)c21 [Example 1-302],,≥ 1.5,
100 to 1000,10 to 100,,,CCNC(=O)Nc1cccc(-n2c(=O)n(C3CC3)c(=O)c3c(Nc4ccc(Br)cc4F)cc(=O)n(C)c32)c1 [Example 1-307],,≥ 1.5,
10 to 100,< 10,,,CN(C)S(=O)(=O)Nc1cccc(-n2c(=O)n(C3CC3)c(=O)c3c(Nc4ccc(Br)cc4F)cc(=O)n(C)c32)c1 [Example 1-309],,≥ 1.5,
< 10,< 10,,,CCCS(=O)(=O)Nc1cccc(-n2c(=O)n(C3CC3)c(=O)c3c(Nc4ccc(I)cc4F)cc(=O)n(C)c32)c1 [Example 1-311],,≥ 1.5,
10 to 100,< 10,,,C#Cc1ccc(Nc2cc(=O)n(C)c3c2c(=O)n(C2CC2)c(=O)n3-c2cccc(NS(=O)(=O)C(C)C)c2)c(F)c1 [Example 1-321],≥ 1.5,,
